Test results: patent US4399817A, “Boron containing polyphosphonates for the treatment of calcific tumors” (The Procter & Gamble Company, priority 1981, dated 1983)

Key:
[1] = Crystal Growth Inhibition Test; conditions: for Lag Time: pH 7.4
Method: The test is conducted as follows:
50 ml of a 0.01 M KH2 PO4 stock solution is diluted with 1000 ml N2 purged distilled water. 1 ml of an aqueous solution of the polyphosphonate to be tested (at a concentration to provide the desired ultimate concentration in the reaction mixture) is added to the diluted KH2 PO4 solution and the solution is adjusted to pH 7.4 with potassium hydroxide. To this solution is added 50 ml of a 0.0175 N CaCl2 solution preadjusted to pH 7.4. The KOH consumption is recorded as a function of time. The rate of KOH consumption is directly related to the rate of calcium phosphate formation. In the absence of polyphosphonate the formation of calcium phosphate starts at t=o, i.e. when the solutions of KH2 PO4 and CalCl2 are mixed. Low levels of polyphosphonates are capable of inhibiting the formation of calcium phosphate for 20 minutes or longer. This effect depends on the propensity of the polyphosphonates to adsorb on calcium phosphate crystal nuclei.
1-Methyl, 2-(2,2-ethane diphosphonic acid) o-carborane (MECB) was subjected to the Crystal Growth Inhibition Test.

[2] = Oral capsules followed by neutron irradiation in adult with a bone tumor (Example VIII); assay type: in vivo, adult (human); conditions: oral capsules (350 mg MECB or replacement) twice daily, ten days; 37 eV neutron beam about 24 hrs after last capsule
Method: Capsules are prepared by conventional methods, comprised as follows:
To a 76 kg adult with a bone tumor are administered orally twice daily the above capsules for a period of ten days. About 24 hrs after the last capsule is administered, the tumor site is irradiated with a 37 eV neutron beam of 2.4×10^8 neutrons cm^-2 s^-1.

[3] = Animal skeletal uptake test (99mTc scan); assay type: in vivo, Rabbits; conditions: 99mTc-labelled solution, 1.0 ml injected; scanned at 3 hrs and 21 hrs
Method: In this test the skeletal uptake of a polyphosphonate compound is established as follows:
A reducing solution is prepared by mixing 5.0 ml of a 0.34 N NTA solution, 1.0 ml of a 0.84 M SnCl2 solution and 3.0 ml H2 O. The pH of the solution is adjusted to 5.6 with 1.0 N NaOH. 100 ul of the reducing solution is added to 1.0 ml of a ^99m TcO4^- solution, containing 19.6 mCi. The reduction of TcO4^- is checked by TLC. 0.9 ml of a 35 mg/ml solution of a boron polyphosphonate is added to the reduced technetiate solution. Rabbits are injected with 1.0 ml each of this solution. The animals are scanned for skeletal uptake at 3 hrs and 21 hrs after injection.

[4] = Water solubility (remark in synthesis); assay type: physicochemical
Method: 1,2-Diphosphono-o-carborane was prepared as follows: To a solution of 5 g o-carborane in dry THF was added dropwise 46.7 ml of a 1.5 N solution of n-butyllithium at 0° C. To the mixture was then quickly added 11 g diethyl chlorophosphite. The solution was refluxed for several hours. The THF was evaporated. The resulting residue contained unreacted o-carborane and 1,2-di(diethyl phosphite) o-carborane. The latter was hydrolized to the corresponding acid in 500 ml 6 N HCl by refluxing during 24 hours, after which the remaining HCl solution was evaporated. […] The water was then evaporated, and the residue mixed with 50 ml 10% hydrogen peroxide. The mixture was carefully refluxed until the reaction was completed. The structure of 1,2-diphosphono-o-carborane was verified by ^31 P and ^11 B NMR.

[5] = Oral tablets followed by neutron irradiation in patient with calcified tumor (Example IX); assay type: in vivo, patient (human)
Method: Tablets are prepared by conventional methods, formulated as follows: […]

For `CC(O)(P(=O)(O)O)P(=O)(O)O` [EHDP, Ethane hydroxy diphosphonate, reference compound], the “Lag Time” value ([1]; Concentration 1 × 10^-6 Mole) was 82 min.

With “1-Methyl, 2-(2,2-ethane diphosphonic acid) o-carborane [MECB]” the “level of alpha and Li particles generated in the tumor tissue” value [2] was “effective level”, the “Lag Time” value ([1]; Concentration 1 × 10^-6 Mole) was 25 min and the “Lag Time” value ([1]; Concentration 2 × 10^-6 Mole) was 37 min. For the same compound, the “capability to retard the formation of calcium phosphate” value ([1]; compared with Cl2 MDP, Table I) was “the same as that of Cl2 MDP” and the skeletal affinity [3] was “high skeletal affinity”.

In the case of `O=P(O)(O)C(Cl)(Cl)P(=O)(O)O` [Cl2 MDP, dichloromethylene diphosphonate, reference compound], the “Lag Time” value ([1]; Concentration 1 × 10^-6 Mole) is reported as 18 min and the “Lag Time” value ([1]; Concentration 2 × 10^-6 Mole) is reported as 41 min.

For “1,2-dicarbaclosododeca borane (12) [o-carborane]”, the solubility in water [4] was “not soluble in water”.

With “1,2-di(2-chloro-2,2-ethane diphosphonic acid)o-carborane [DC1EDP]” the “deposition of 10B in the calcified tumor tissue” value ([5]; oral tablets (25 mg) four times daily) was “significant amounts” and the “levels of localized alpha particles emitted” value ([5]; oral tablets four times daily, irradiation by 37 eV neutrons) was “effective levels”.
